# Earlier results in patent publication US7473787B2, “Bicyclic [3.1.0] derivatives as glycine transporter inhibitors” (Pfizer Inc, priority 2003, dated 2009).
# System: NMDA receptor
# Details: effect blocked by a specific NMDA-site antagonist and a glycine-site antagonist
compound,measurement,value
CN(CCC(Oc1ccc(-c2ccccc2)cc1)c1ccc(F)cc1)CC(=O)O (stereo not shown) [NFPS],effect on postsynaptic current driven by the NMDA receptor,increased the postsynaptic current
